Measured values published in US20120252853A1, “Positive allosteric modulators of nicotinic acetylcholine receptor” (H. Lundbeck A/S, priority 2011, published 2012).

Experiments:
[1] = tested on: α7 nACh receptors expressed in Xenopus oocytes; test: α7 NNR oocyte assay (electrophysiological recordings); format: cell-based, human or rat; details: tested subsequently in the oocyte assay
Description: Expression of α7 nACh Receptors in Xenopus oocytes.
Oocytes were surgically removed from mature female Xenepus laevis anaesthetized in 0.4% MS-222 for 10-15 min. The oocytes were then digested at room temperature for 2-3 hours with 0.5 mg/ml collagenase (type IA Sigma-Aldrich) in OR2 buffer (82.5 mM NaCl, 2.0 mM KCl, 1.0 mM MgCl2 and 5.0 mM HEPES, pH 7.6). Oocytes avoid of the follicle layer were selected and incubated for 24 hours in Modified Barth's Saline buffer (88 mM NaCl, 1 mM […], 15 mM HEPES, 2.4 mM NaHCO3, 0.41 mM CaCl2, 0.82 mM MgSO4, 0.3 mM Ca(NO3)2) supplemented with 2 mM sodium pyruvate, 0.1 μg/l penicillin and 0.1 μg/l streptomycin. Stage 1V oocytes were identified and injected with 4.2-48 nl of nuclease free water containing 0.1-1.2 ng of cRNA coding for human α7 nACh receptors or 3.0-32 ng of cRNA coding for rat α7 nACh receptors and incubated at 18° C. for 1-10 days when they were used for electrophysiological recordings.
Electrophysiological Recordings of α7 nACh Receptors Expressed in Oocytes.
Oocytes were used for electrophysiological recordings 1-10 days after injection. Oocytes were placed in a 1 ml bath and perfused with Ringer buffer (115 mM NaCl, 2.5 mM KCl, 10 mM HEPES, 1.8 mM CaCl2, 0.1 mM MgCl2, pH 7.5). Cells were impaled with agar plugged 0.2-1 MΩ electrodes containing 3 M KCl and voltage clamped at −90 mV by a GeneClamp 500B amplifier. The experiments were performed at room temperature. Oocytes were continuously perfused with Ringer buffer and the drugs were applied in the perfusate. ACh (30 μM) applied for 30 sec were used as the standard agonist for activation of the α7 nACh receptors. In the standard screening set-up the new test compound (10 μM or 30 μM) were applied for 1 min of pre-application allowing for evaluation of agonistic activity followed by 30 sec of co-application with ACh (30 μM) allowing for evaluation of PAM activity. […] The drug induced effects on both the peak response and the total charge (AUC) response were calculated thus giving the effect of drug induced PAM activity as fold modulation of the control response. […]

[2] = target: human α7 receptor (Homo sapiens, UniProt P36544); test: α7 NNR flux assay (FDSS Ca assay); format: cell-based; details: positive allosteric modulation; rat GH4C1 cell line stably expressing human α7; acetylcholine 20 μM; % modulation relative to PNU-120596 set to 100%
human α7 receptor, sequence (P36544 23-502): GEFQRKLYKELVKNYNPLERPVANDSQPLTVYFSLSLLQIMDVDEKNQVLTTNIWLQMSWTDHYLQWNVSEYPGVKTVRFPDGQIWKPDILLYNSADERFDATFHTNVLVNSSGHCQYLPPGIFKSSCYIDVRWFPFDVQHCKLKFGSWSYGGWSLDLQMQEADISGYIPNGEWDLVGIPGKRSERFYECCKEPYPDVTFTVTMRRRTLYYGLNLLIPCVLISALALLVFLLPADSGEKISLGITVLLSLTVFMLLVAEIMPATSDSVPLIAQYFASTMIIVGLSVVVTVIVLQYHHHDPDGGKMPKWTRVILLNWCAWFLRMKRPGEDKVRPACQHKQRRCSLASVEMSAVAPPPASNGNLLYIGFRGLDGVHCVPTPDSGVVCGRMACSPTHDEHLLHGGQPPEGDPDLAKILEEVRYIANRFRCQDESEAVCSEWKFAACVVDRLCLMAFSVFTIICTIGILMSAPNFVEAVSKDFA
Method in brief: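 GH4C1 rat cells stably expressing human α7, loaded with Calcium-4 dye plus 2.5 mM probenecid in HBSS/20 mM HEPES pH 7.4, 3 mM CaCl2. Compounds (0.039–20 μM final) preincubated ~95 s before 20 μM acetylcholine (~EC100); Ex480/Em540 fluorescence on FDSS. Values are % modulation, with 3 μM PNU-120596 set to 100%.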

[3] = target: T1, human KCNQ2 (Homo sapiens, UniProt O43526); test: 86Rb flux in KCNQ2 expressing cells; format: cell-based; details: KCNQ2 opening; Max effect determined in % of the effect of 30 mM KCl
T1 construct: expressed in transfected cells
Description: Chinese hamster ovary cells (CHO-K1) were stably transfected with human KCNQ2 inserted into the pCl-neo vector (Promega). Cells were plated at 2×10^5 cells/ml in 96-well plates in 100 μl media (MEM Alpha media, 10% FBS, 1% P/S, 1% L-Glu, and 1 mg/ml G418). At the time of plating the cells were furthermore loaded with 1 μCi/ml 86Rb over-night. On the subsequent day, the cells were washed with 3×50 μl assay buffer (HBSS+10 mM HEPES, pH 7.4) and incubated in 50 μl buffer with retigabine for 30 minutes at 37° C. Following this preincubation, the cell membrane was depolarized for 30 minutes at 37° C. with 15 mM KCl (final concentration) in assay buffer supplemented with the appropriate amount of compound to maintain drug concentration. The supernatant was removed and placed in pony-vials with 0.5 ml scintillation liquid and counted. The dose-dependent effect of the investigated compounds on the efflux of 86Rb through the hKCNQ2 channels were calculated according to the four parameter logistic equation: Y=Bottom+(Top-Bottom)/(1+10̂((LogEC50-X)*HillSlope)), where X is the logarithm of concentration, Y is the response, and HillSlope is the hill coefficient.
A representative selection of compounds of the invention were tested in the assay in addition to 6 comparative examples wherein 0 has been substituted with a 6-membered ring comprising up to two N atoms. Comparative 1-4 has been disclosed in WO 2009/127678 or WO 2009/127679 and comparative 5-6 are close analogues.

Row | NNR PAM activity in the oocyte assay compared with the flux assay [1] | EC50 [2] | Emax [3] | SMILES
1 | significantly better NNR PAM activity | 0.9 µM | 1% | Cc1cc2cc(CNC(=O)c3cc(C(C)C)no3)ccc2[nH]1 [Compound 34, 3-isopropyl-N-[(2-methyl-1H-indol-5-yl)methyl]isoxazole-5-carboxamide]
2 | significantly better NNR PAM activity | > 20 µM | – | Cc1cc(C(=O)N[C@H](C)c2ccc3[nH]c(C)cc3c2)sn1 [Compound 47, 3-methyl-N-[(1R)-1-(2-methyl-1H-indol-5-yl)ethyl]isothiazole-5-carboxamide]
3 | significantly better NNR PAM activity | > 20 µM | – | Cc1cc2cc([C@@H](C)NC(=O)c3cnn(CC(F)(F)F)c3)ccc2[nH]1 [Compound 86, N-[(1R)-1-(2-methyl-1H-indol-5-yl)ethyl]-1-(2,2,2-trifluoroethyl)pyrazole-4-carboxamide]
